Assay results published in BindingDB's records for doi:10.1016/j.chembiol.2008.10.014 (Columbia University, 2008).

target: T1, Olfactory receptor (Rattus norvegicus, UniProt D3Z9H0); assay: Inhibition Assay
T1 sequence (D3Z9H0 whole entry): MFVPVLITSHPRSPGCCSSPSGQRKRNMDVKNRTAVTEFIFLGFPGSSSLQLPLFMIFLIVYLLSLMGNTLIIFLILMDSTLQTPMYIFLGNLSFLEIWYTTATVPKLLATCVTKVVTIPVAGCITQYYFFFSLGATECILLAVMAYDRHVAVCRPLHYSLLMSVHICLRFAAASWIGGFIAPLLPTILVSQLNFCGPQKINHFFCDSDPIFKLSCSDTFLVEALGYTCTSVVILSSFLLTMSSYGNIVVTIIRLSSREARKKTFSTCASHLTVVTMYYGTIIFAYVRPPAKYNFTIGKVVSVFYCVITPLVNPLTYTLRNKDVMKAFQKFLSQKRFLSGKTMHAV
Description: Inhibition assay of olfactory receptors 17 activation.

First: O=CCCC1CCCC1 [Aldehydes, 4]
Second: O=CCC1CCCCC1 [Aldehydes, 5]
The IC50 of the first is 1.6-fold higher: 60 µM for the first, 37 µM for the second.

First: O=CC1CCCCCC1 [Aldehydes, 6]
Second: CCCCC=O [Aldehydes, C5]
The IC50 of the first is 8.1-fold lower: 57 µM for the first, 460 µM for the second. The first is the more potent here.

Compound `CCCCCC=O` [Aldehydes, C6] has an IC50 of 133 µM.
